# Laboratory results as given in PMC10323144, “Garbage in, garbage out: how reliable training data improved a virtual screening approach against SARS-CoV-2 MPro” (Frontiers in Pharmacology, 2023).
# Square brackets hold non-standard residues; d marks the D form. Peptide text beside a SMILES is read from it. * marks the point of attachment. NMeF = CN[CH](Cc1ccccc1)C(=O)O; NMeA = CN[CH](C)C(=O)O; tBu = CC(C)(C)*
# Biological target: SARS-CoV-2 MPro (Severe acute respiratory syndrome coronavirus 2, UniProt P0DTD1)
# Assay: MPro activity assay (de-quenching of Edans fluorescence on cleavage of a Dabcyl/Edans peptide)
# Type: biochemical
# Conditions: in-house acquired data, internal screening under standardized conditions (128 compounds)
row,Structure (SMILES),Class (MPro activity class)
1,O=C(Nc1ccc([N+](=O)[O-])cc1)c1ccccc1I [COV19030],"0 (compounds with IC50 > 20 μM, percentage inhibition <80% at 20 µM or 50 μM, or percentage enzyme inhibition <50% at 10 µM were labelled as INACTIVE)"
2,COc1cccc(OC)c1NC(=O)c1ccccc1I [COV19031],"0 (compounds with IC50 > 20 μM, percentage inhibition <80% at 20 µM or 50 μM, or percentage enzyme inhibition <50% at 10 µM were labelled as INACTIVE)"
3,O=C(NCc1ccc(C(F)(F)F)cc1)c1ccccc1I [COV19032],"0 (compounds with IC50 > 20 μM, percentage inhibition <80% at 20 µM or 50 μM, or percentage enzyme inhibition <50% at 10 µM were labelled as INACTIVE)"
4,O=C(Nc1cccc2ccccc12)c1ccccc1I [COV19033],"0 (compounds with IC50 > 20 μM, percentage inhibition <80% at 20 µM or 50 μM, or percentage enzyme inhibition <50% at 10 µM were labelled as INACTIVE)"
5,Cc1cccc(C(=O)Nc2ccccc2)c1I [COV19034],"0 (compounds with IC50 > 20 μM, percentage inhibition <80% at 20 µM or 50 μM, or percentage enzyme inhibition <50% at 10 µM were labelled as INACTIVE)"
6,NC(=O)c1ccccc1I [COV19035],"0 (compounds with IC50 > 20 μM, percentage inhibition <80% at 20 µM or 50 μM, or percentage enzyme inhibition <50% at 10 µM were labelled as INACTIVE)"
7,Cc1cccc(C(N)=O)c1I [COV19036],"0 (compounds with IC50 > 20 μM, percentage inhibition <80% at 20 µM or 50 μM, or percentage enzyme inhibition <50% at 10 µM were labelled as INACTIVE)"
8,O=C(Nc1ccc(C(F)(F)F)cc1)c1ccccc1I [COV19037],"0 (compounds with IC50 > 20 μM, percentage inhibition <80% at 20 µM or 50 μM, or percentage enzyme inhibition <50% at 10 µM were labelled as INACTIVE)"
9,Cc1ccc(NC(=O)c2c(C)cc(Cl)cc2I)cc1 [COV19038],"0 (compounds with IC50 > 20 μM, percentage inhibition <80% at 20 µM or 50 μM, or percentage enzyme inhibition <50% at 10 µM were labelled as INACTIVE)"
10,Cc1cc(Cl)cc(I)c1C(=O)NCc1ccccc1 [COV19039],"0 (compounds with IC50 > 20 μM, percentage inhibition <80% at 20 µM or 50 μM, or percentage enzyme inhibition <50% at 10 µM were labelled as INACTIVE)"
11,Cc1cccc(C(=O)NCc2ccccc2)c1I [COV19040],"0 (compounds with IC50 > 20 μM, percentage inhibition <80% at 20 µM or 50 μM, or percentage enzyme inhibition <50% at 10 µM were labelled as INACTIVE)"
12,CC1C(=O)NC(Cc2ccccc2)C(=O)N(C)C(Cc2ccccc2)C(=O)NCC(=O)N1C (centres unmarked) [COV19080] (cyclo(G[NMeA]F[NMeF]); configuration not given here),"0 (compounds with IC50 > 20 μM, percentage inhibition <80% at 20 µM or 50 μM, or percentage enzyme inhibition <50% at 10 µM were labelled as INACTIVE)"
13,CC1C(=O)NC(Cc2ccc(OC(C)(C)C)cc2)C(=O)NCC(=O)N(C)C(Cc2ccccc2)C(=O)N1C (centres unmarked) [COV19081] (cyclo(G[NMeF][NMeA]Y(tBu)); configuration not given here),"0 (compounds with IC50 > 20 μM, percentage inhibition <80% at 20 µM or 50 μM, or percentage enzyme inhibition <50% at 10 µM were labelled as INACTIVE)"
14,CC1NC(=O)C(Cc2ccccc2)N(C)C(=O)CNC(=O)C(Cc2ccccc2)N(C)C1=O (centres unmarked) [COV19097] (cyclo(G[NMeF]A[NMeF]); configuration not given here),"0 (compounds with IC50 > 20 μM, percentage inhibition <80% at 20 µM or 50 μM, or percentage enzyme inhibition <50% at 10 µM were labelled as INACTIVE)"
15,CC(=NNC(N)=S)c1cc2ccccc2oc1=O [COV19136],"0 (compounds with IC50 > 20 μM, percentage inhibition <80% at 20 µM or 50 μM, or percentage enzyme inhibition <50% at 10 µM were labelled as INACTIVE)"
16,CNC(=S)NN=C(C)c1cc2ccccc2oc1=O [COV19137],"0 (compounds with IC50 > 20 μM, percentage inhibition <80% at 20 µM or 50 μM, or percentage enzyme inhibition <50% at 10 µM were labelled as INACTIVE)"
17,CCNC(=S)NN=C(C)c1cc2ccccc2oc1=O [COV19138],"0 (compounds with IC50 > 20 μM, percentage inhibition <80% at 20 µM or 50 μM, or percentage enzyme inhibition <50% at 10 µM were labelled as INACTIVE)"
18,CC(=NNC(=S)Nc1ccccc1)c1cc2ccccc2oc1=O [COV19139],"0 (compounds with IC50 > 20 μM, percentage inhibition <80% at 20 µM or 50 μM, or percentage enzyme inhibition <50% at 10 µM were labelled as INACTIVE)"
19,CC(=NNC(N)=S)c1c(O)c2ccccc2oc1=O [COV19140],"0 (compounds with IC50 > 20 μM, percentage inhibition <80% at 20 µM or 50 μM, or percentage enzyme inhibition <50% at 10 µM were labelled as INACTIVE)"
20,CNC(=S)NN=C(C)c1c(O)c2ccccc2oc1=O [COV19141],"0 (compounds with IC50 > 20 μM, percentage inhibition <80% at 20 µM or 50 μM, or percentage enzyme inhibition <50% at 10 µM were labelled as INACTIVE)"
21,CCNC(=S)NN=C(C)c1c(O)c2ccccc2oc1=O [COV19142],"0 (compounds with IC50 > 20 μM, percentage inhibition <80% at 20 µM or 50 μM, or percentage enzyme inhibition <50% at 10 µM were labelled as INACTIVE)"
22,CC(=NNC(=S)Nc1ccccc1)c1c(O)c2ccccc2oc1=O [COV19143],"0 (compounds with IC50 > 20 μM, percentage inhibition <80% at 20 µM or 50 μM, or percentage enzyme inhibition <50% at 10 µM were labelled as INACTIVE)"
23,CC(=NNC(N)=O)c1cc2ccccc2oc1=O [COV19144],"0 (compounds with IC50 > 20 μM, percentage inhibition <80% at 20 µM or 50 μM, or percentage enzyme inhibition <50% at 10 µM were labelled as INACTIVE)"
24,CC(=NNC(N)=[Se])c1cc2ccccc2oc1=O [COV19145],"0 (compounds with IC50 > 20 μM, percentage inhibition <80% at 20 µM or 50 μM, or percentage enzyme inhibition <50% at 10 µM were labelled as INACTIVE)"
25,CN(CCc1ccc(Cl)cc1)C(=S)c1ccccc1I [COV19183],"0 (compounds with IC50 > 20 μM, percentage inhibition <80% at 20 µM or 50 μM, or percentage enzyme inhibition <50% at 10 µM were labelled as INACTIVE)"
26,CC(C)(C)OC(=O)NC1CCCN(CC(=O)NC(Cc2ccccc2)C(=O)Nc2nc3cc(Sc4ccccc4)ccc3[nH]2)C1=O (centres unmarked) [COV19184],"0 (compounds with IC50 > 20 μM, percentage inhibition <80% at 20 µM or 50 μM, or percentage enzyme inhibition <50% at 10 µM were labelled as INACTIVE)"
27,CCCOC(=O)C(Cc1ccccc1)NC(=O)CN1CCCC(NC(=O)OC(C)(C)C)C1=O (centres unmarked) [COV19185],"0 (compounds with IC50 > 20 μM, percentage inhibition <80% at 20 µM or 50 μM, or percentage enzyme inhibition <50% at 10 µM were labelled as INACTIVE)"
28,CC(=O)OCC1OC(OC(C)=O)C(NC(=O)C(Cc2ccccc2)NC(=O)CN2CCCC(NC(=O)OC(C)(C)C)C2=O)C(OC(C)=O)C1OC(C)=O (centres unmarked) [COV19186],1 (Compounds with IC50 < 10 µM or with a percentage of enzyme inhibition >50% at 10 µM were labelled as ACTIVE)
29,C(=Cc1ccco1)C=Nn1cnnc1 [COV19287],"0 (compounds with IC50 > 20 μM, percentage inhibition <80% at 20 µM or 50 μM, or percentage enzyme inhibition <50% at 10 µM were labelled as INACTIVE)"
